Results on 22 compounds are retold here after US20100056524A1, “Compound” (priority 2008, published 2010).

The assay has as its target T1, TBK1 (Homo sapiens, UniProt Q9UHD2).
T1 construct: All protein kinases were of human origin and encoded full length proteins, unless indicated otherwise; His6; made in house; host or cells: insect Sf21 cells
T1 sequence (Q9UHD2 1-729): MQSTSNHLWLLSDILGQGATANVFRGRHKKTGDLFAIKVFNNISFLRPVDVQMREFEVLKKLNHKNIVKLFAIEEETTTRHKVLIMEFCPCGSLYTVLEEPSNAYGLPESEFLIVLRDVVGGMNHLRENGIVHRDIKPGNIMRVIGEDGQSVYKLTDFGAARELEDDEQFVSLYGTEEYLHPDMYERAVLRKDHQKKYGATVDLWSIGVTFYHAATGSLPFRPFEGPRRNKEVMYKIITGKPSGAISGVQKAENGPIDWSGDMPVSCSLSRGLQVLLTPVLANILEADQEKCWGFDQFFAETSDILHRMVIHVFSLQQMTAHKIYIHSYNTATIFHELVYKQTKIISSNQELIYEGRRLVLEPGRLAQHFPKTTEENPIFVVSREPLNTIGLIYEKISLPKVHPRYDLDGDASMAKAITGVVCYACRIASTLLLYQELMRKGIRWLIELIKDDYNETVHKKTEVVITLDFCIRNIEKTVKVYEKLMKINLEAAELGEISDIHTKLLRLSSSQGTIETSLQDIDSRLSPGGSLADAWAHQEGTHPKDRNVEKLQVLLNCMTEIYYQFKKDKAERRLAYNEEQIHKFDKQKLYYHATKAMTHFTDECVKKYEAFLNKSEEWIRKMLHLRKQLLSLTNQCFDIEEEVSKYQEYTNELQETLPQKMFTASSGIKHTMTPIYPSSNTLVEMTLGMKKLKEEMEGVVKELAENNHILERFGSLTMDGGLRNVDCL
The assay can be described thus: TBK1 protein kinase assay ([γ-33P]ATP, P81 filterplates). As to conditions: 50 μM ATP. It is filed as biochemical. The source says: All protein kinases were of human origin and encoded full length proteins, unless indicated otherwise. They were either expressed as glutathione S-transferase (GST) fusion proteins in Escherichia Coli or as hexahistidine (His6)-tagged proteins in insect Sf21 cells. GST fusion proteins were purified by affinity chromatography on glutathione-Sepharose, and His6-tagged proteins on nickel/nitriloacetate-agarose. The procedures for expressing some of the protein kinases used herein have been detailed previously.^8,9 The following sections outline the DNA vectors synthesised and the procedures used to express and purifying protein kinases that have not been reported previously.
The following kinases were expressed in Sf21 cells: Aurora B and Aurora C, extra-cellular signal-regulated kinase 8 (ERK8), microtubule affinity regulating kinase 3 (MARK3), protein kinase Bα[118-480][S473D], protein kinase Bβ (PKBβ[120-481][S474D], 3-phosphoinositide-dependent protein kinase-1 [52-556]
Assays were performed for 30 min using Multidrop Micro reagent dispensers (Thermo Electron Corporation, Waltham, Mass. 02454, USA) in a 96-well format. The concentration of magnesium acetate in the assays was 10 mM and the [γ-33P] ATP (800 cpm/pmol) was used at 5, 20 or 50 μM as indicated, in order to be at or below the Km for ATP for each enzyme. Protein kinases assayed at 5 μM ATP were: —ERK1, ERK8, PKBα, MARK3, Aurora C. Protein kinases assayed at 20 μM ATP were: —JNK1, PDK1, CHK1, CHK2, CDK2 and Aurora B. Protein kinases assayed at 50 μM ATP were: —MNK2, IKKepsilon and TBK1.
The assays were initiated with MgATP, stopped by addition of 5 μl of 0.5 M orthophosphoric acid and spotted on to P81 filterplates using a unifilter harvester (PerkinElmer, Boston, Mass. 02118, USA). The IC50 values of inhibitors were determined after carrying out assays at 10 different concentrations of each compound.
ERK1 and ERK8 were both assayed against myelin basic protein (MBP, 0.33 mg/ml). MARK3 was assayed against the peptide […] (300 μM), MNK2 against the eIF4E protein (0.5 mg/ml). PKBβ was assayed against the peptide […] (30 μM). TBK1 were assayed against ([…]) (300 μM). The substrates used for other protein kinases were described previously.^8,9
Unless stated otherwise, enzymes were diluted in 50 mM Tris/HCl pH 7.5, 0.1 mM EGTA, 1 mg/ml BSA, 0.1% (v/v) 2-mercaptoethanol and assayed in 50 mM Tris/HCl pH 7.5, 0.1 mM EGTA, 0.1% (v/v) 2-mercaptoethanol.

[1] abbreviates: read-out: Potency (TBK1 IC50 potency score).

Where a name gives a salt, the structure may show the parent alone. Read-outs that look alike come from different tables or passages of the source. Bounds are passed on as bounds.

`CN1CCN(c2ccc(Nc3ncc(C4CC4)c(NCCCNC(=O)C4CCC4)n3)cn2)CC1` [Example 43, Cyclobutanecarboxylic acid (3-{5-cyclopropyl-2-[6-(4-methyl-piperazin-1-yl)-pyridin-3-ylamino]-pyrimidin-4-ylamino}-propyl)-amide]: the IC50 (commonly the midpoint of a concentration-inhibition curve) under setting [1] was less than 100 nM.

For the compound `CC(=O)Nc1cccc(Nc2ncc(C3CC3)c(NCCCNC(=O)C3CCCC3)n2)c1` [Example 67, Cyclopentanecarboxylic acid {3-[2-(3-acetylamino-phenylamino)-5-cyclopropyl-pyrimidin-4-ylamino]-propyl}-amide], the IC50 under setting [1] is less than 100 nM.

`CC(C)(C)OC(=O)Nc1cccc(Nc2ncc(C3CC3)c(NCCCNC(=O)c3cccs3)n2)c1` [Example 31, [3-(5-Cyclopropyl-4-{3-[(thiophene-2-carbonyl)-amino]-propylamino}-pyrimidin-2-ylamino)-phenyl]-carbamic acid tert-butyl ester]: the IC50 under setting [1] was in the range of 1000 to 10000 nM.

In the case of `O=C(NCCCNc1nc(Nc2cccc(N3CCCC3=O)c2)ncc1C1CC1)C1CCC1` [Example 48, Cyclobutanecarboxylic acid (3-{5-cyclopropyl-2-[3-(2-oxo-pyrrolidin-1-yl)-phenylamino]-pyrimidin-4-ylamino}-propyl)-amide], the IC50 under setting [1] is less than 100 nM.

As for `O=C(NCCCNc1nc(Nc2ccc3nccnc3c2)ncc1C1CC1)C1CCC1` [Example 190, Cyclobutanecarboxylic acid {3-[5-cyclopropyl-2-(quinoxalin-6-ylamino)-pyrimidin-4-ylamino]-propyl}-amide], the IC50 under setting [1] was less than 100 nM.

Turning to `CN(CCN1CCOCC1)C(=O)c1cccc(Nc2ncc(C3CC3)c(NCCCNC(=O)C3CCC3)n2)c1` [Example 80, 3-{4-[3-(Cyclobutanecarbonyl-amino)-propylamino]-5-cyclopropyl-pyrimidin-2-ylamino}-N-methyl-N-(2-morpholin-4-yl-ethyl)-benzamide], the IC50 under setting [1] was less than 100 nM.

Regarding `O=C1NCc2cc(Nc3ncc(C4CC4)c(NCCCNC(=O)C4CCC4)n3)ccc21` [Example 90, Cyclobutanecarboxylic acid {3-[5-cyclopropyl-2-(1-oxo-2,3-dihydro-1H-isoindol-5-ylamino)-pyrimidin-4-ylamino]-propyl}-amide. Trifluoroacetic acid salt], the IC50 under setting [1] was less than 100 nM.

For `O=C1NCc2ccc(Nc3ncc(C4CC4)c(NCCCNC(=O)C4CCC4)n3)cc21` [Example 88, Cyclobutanecarboxylic acid {3-[5-cyclopropyl-2-(3-oxo-2,3-dihydro-1H-isoindol-5-ylamino)-pyrimidin-4-ylamino]-propyl}-amide hydrochloride salt], the IC50 under setting [1] was less than 100 nM.

For `Cn1cc(-c2ccc(Nc3ncc(C4CC4)c(NCCCNC(=O)C4CCC4)n3)cn2)cn1` [Example 115, Cyclobutanecarboxylic acid (3-{5-cyclopropyl-2-[6-(1-methyl-1H-pyrazol-4-yl)-pyridin-3-ylamino]-pyrimidin-4-ylamino}-propyl)-amide], the half-maximal inhibitory concentration (IC50) under setting [1] was less than 100 nM.

In the case of `O=C(NCCCNc1nc(Nc2ccc3cnccc3c2)ncc1C1CC1)c1cccs1` [Example 53, Thiophene-2-carboxylic acid {3-[5-cyclopropyl-2-(isoquinolin-6-ylamino)-pyrimidin-4-ylamino]-propyl}-amide], the IC50 under setting [1] fell in the range of 1000 to 10000 nM.

For the compound `Cn1ccc(-c2cccc(Nc3ncc(C4CC4)c(NCCCNC(=O)C4CCC4)n3)c2)n1` [Example 84, Cyclobutanecarboxylic acid (3-{5-cyclopropyl-2-[3-(1-methyl-1H-pyrazol-3-yl)-phenylamino]-pyrimidin-4-ylamino}-propyl)-amide], the concentration for half-maximal inhibition (IC50) under setting [1] is less than 100 nM.

As for `O=C(NCCCNc1nc(Nc2cccc(F)c2)ncc1C1CC1)c1cccs1` [Example 26, Thiophene-2-carboxylic acid {3-[5-cyclopropyl-2-(3-fluoro-phenylamino)-pyrimidin-4-ylamino]-propyl}-amide], the IC50 under setting [1] is 100 to 1000 nM.

For the compound `O=C(NCCCNc1nc(Nc2ccc(-c3cccnc3)nc2)ncc1C1CC1)C1CCC1` [Example 120, Cyclobutanecarboxylic acid {3-[2-([2,3′]bipyridinyl-5-ylamino)-5-cyclopropyl-pyrimidin-4-ylamino]-propyl}-amide], the IC50 under setting [1] was less than 100 nM.

With `O=C(NCCCNc1nc(Nc2cccc(F)c2)ncc1C1CC1)C1CCCO1` (stereo not shown) [Example 15, Tetrahydro-furan-2-carboxylic acid {3-[5-cyclopropyl-2-(3-fluoro-phenylamino)-pyrimidin-4-ylamino]-propyl}-amide], the IC50 under setting [1] is 100 to 1000 nM.

Turning to `O=C(NCCCNc1nc(Nc2ccc(N3CCOCC3)nc2)ncc1C1CC1)C1CCC1` [Example 93, Cyclobutanecarboxylic acid {3-[5-cyclopropyl-2-(6-morpholin-4-yl-pyridin-3-ylamino)-pyrimidin-4-ylamino]-propyl}-amide], under setting [1], the IC50 was less than 100 nM.

On to `N#Cc1cccc(Nc2ncc(C3CC3)c(NCCCNC(=O)c3cccs3)n2)c1` [Example 61, Thiophene-2-carboxylic acid {3-[2-(3-cyano-phenylamino)-5-cyclopropyl-pyrimidin-4-ylamino]-propyl}-amide], for which the IC50 under setting [1] lay within 100 to 1000 nM.

For the compound `Cn1cnc(C(=O)NCCCNc2nc(Nc3cccc(F)c3)ncc2C2CC2)c1` [Example 10, 1-Methyl-1H-imidazole-4-carboxylic acid {3-[5-cyclopropyl-2-(3-fluoro-phenylamino)-pyrimidin-4-ylamino]-propyl}-amide trifluoroacetic acid salt], the IC50 under setting [1] lay within 1000 to 10000 nM.

Regarding `O=C1CCCN1CCCNc1nc(Nc2cccc(F)c2)ncc1C1CC1` [Example 38, 1-{3-[5-Cyclopropyl-2-(3-fluoro-phenylamino)-pyrimidin-4-ylamino]-propyl}-pyrrolidin-2-one], under setting [1], the IC50 is 100 to 1000 nM.

On to `NC(=O)c1cccc(Nc2ncc(C3CC3)c(NCCCNC(=O)c3cccs3)n2)c1` [Example 36, Thiophene-2-carboxylic acid {3-[2-(3-carbamoyl-phenylamino)-5-cyclopropyl-pyrimidin-4-ylamino]-propyl}-amide trifluoroacetic acid salt], for which, under setting [1], the 50% inhibitory concentration (IC50) lay in the range of 100 to 1000 nM.

For `O=C(NCCCNc1nc(Nc2ccc3[nH]c(=O)[nH]c3c2)ncc1C1CC1)C1CCC1` [Example 178, Cyclobutanecarboxylic acid {3-[5-cyclopropyl-2-(2-oxo-2,3-dihydro-1H-benzimidazol-5-ylamino)-pyrimidin-4-ylamino]-propyl}-amide], under setting [1], the IC50 was less than 100 nM.

On to `CN(C)c1cccc(Nc2ncc(C3CC3)c(NCCCNC(=O)c3cccs3)n2)c1` [Example 44, Thiophene-2-carboxylic acid {3-[5-cyclopropyl-2-(3-dimethylamino-phenylamino)-pyrimidin-4-ylamino]-propyl}-amide trifluoroacetic acid salt], for which the concentration for half-maximal inhibition (IC50) under setting [1] fell in the range of 100 to 1000 nM.

With `O=C(NCCCNc1nc(Nc2cccc(F)c2)ncc1CC1CC1)C1CCC1` [Compound C, cyclobutanecarboxylic acid {3-[5-cyclopropylmethyl-2-(3-fluoro-phenylamino)-pyrimidin-4-ylamino]-propyl}-amide, reference compound], the IC50 (Table 5, read-out: TBK1 IC50) is more than 1000 nM.
